{"source": "patent US7919475B2", "about": "“Compositions and methods for improving heart function” (The Regents of The University of California, priority 2004, dated 2011)", "tested_on": "cellular protein O-GlcNAcylation in STZ-induced diabetic hearts", "test": "Cellular protein O-GlcNAcylation in diabetic mouse hearts by Western blot", "assay_type": "in vivo", "conditions": "STZ-induced diabetic mice, insulin 50 units/g per day subcutaneously for 2 weeks", "from_the_text": "To rule out any potentially toxic effects of STZ on the heart, several STZ-injected mice were intensively treated with Ultralente human insulin (Eli Lilly and Company, IN) with 50 units/g per day subcutaneously. The insulin treatment commenced on the third day after STZ injection and lasted for 2 weeks. The cellular O-GlcNAcylation in these hearts was compared with that of the non-insulin treated diabetic hearts. In addition, several 20 weeks old male polygenic diabetic NONcNZO10/LtJ mice (The Jackson Laboratory) (see, e.g., Reifsnyder (2002) Diabetes 51:825-832; Leiter (2004) Diabetes 53 Suppl 1:S4-11) were used as a type II diabetic model to investigate the excess O-GlcNAcyaltion level in the diabetic heart independent of STZ administration. These mice developed hyperglycemia at 12-16 weeks. At the sacrifice time, blood glucose levels were above 33.3 mmol/L. Animal procedures were performed in accordance with the guidelines established by the Committee on Animal Research at the University of California, San Diego. […]\nTwenty μg of protein was mixed with Laemmli sample buffer at room temperature for 10 min (samples for anti-O-GlcNAc antibody detection was heated at 70° C. for 10 min) and then loaded onto 4-10% gradient Tris/glycine gels. […] Films were scanned and analyzed by IMAGE-J™ software (NIH).", "data": [{"substance": "insulin: Ultralente human insulin (Eli Lilly and Company)", "values": [{"measurement": "excess O-GlcNAcylation of cellular protein in diabetic hearts", "value": "prevented"}]}]}
